US6686341B1, “Nutritional compositions which contain slightly negatively charged, non-digestible polysaccharides and use thereof for reducing transport through tight junctions” (N.V. Nutricia, priority 1999, dated 2004)

System: tight junctions (duodenum biopsies)
Test: Ussing chamber: HRP permeability of duodenum suction biopsies from children suffering from microvillus inclusion disease
Format: cell-based, human
Settings: after adding 4.2 g to the luminal compartment
Description: Suction biopsies of the duodenum were taken from two children suffering from microvillus inclusion disease.

carboxydextran [70 kD carboxydextran]
HRP in the paracellular spaces or tight junctions by electron microscopy: No further HRP could be detected
